The values below come from patent US20190185479A1, “BICYCLIC NITROGENATED HETEROCYCLIC COMPOUND” (MITSUBISHI TANABE PHARMA CORPORATION, priority 2016, published 2019).

Common to all, as to type: biochemical
The target of test [1] is T1, hPDE4D (Homo sapiens, UniProt Q08499).
T1 construct: purchased SB Drug Discovery
Kind of test: PDE4 inhibition assay (IC50), Experimental Example 3. To be noted: for IC50: hPDE4D, read-out: PDE inhibition assay IC50, PDE4; for inhibition at 10 µM: at 10 μmol/L. The procedure:
(§1) PDE7 inhibitory assay was carried out by reacting the mixture of a compound, hPDE7B, and cAMP, and measuring the residual cAMP by a detection method using LANCE (registered trademark) Ultra cAMP Detection Kit (ParkinElmer). The compound was dissolved in DMSO, and diluted so that the concentration would become 50 times of the final concentration. The hPDE7B and cAMP were diluted with an assay buffer (50 mmol/L Tris-HCl, 1 mmol/L MgCl2, 0.1% BSA, 0.5 mmol/L DTT, pH7.5) so that the hPDE7B would have an appropriate enzyme activity and the concentration of cAMP would become 6 nmol/L. To a 96 well plate were added the compound (2 μL) (DMSO final concentration: 2%), hPDE7B (48 μL), and cAMP (50 μL) (concentration at the reaction: 3 nmol/L), and the resulting mixture was reacted at room temperature for 60 minutes. The reaction solution (20 μL) was subjected to a TR-FRET method according to the protocol specified by the kit to measure the concentration of the residual cAMP. In the assay, to a tracer solution specified by the kit was added 0.5 mmol/L of 3-isobutyl-1-methylxanthine (IBMX, nonselective PDE inhibitor) in order to stop the PDE enzyme reaction after the completion of reaction until the measurement.
(§2) The prediction of PDE7 selectivity was evaluated by comparing each IC50 value of a compound against PDE4, 8, and 10 with the IC50 value of said compound against PDE7B.
(§3) hPDE4D, hPDE8B, and hPDE10A were prepared by the same method as [Method for preparing samples 2].
(§4) PDE4, 8, and 10 inhibitory assays were carried out by the same method as [Assay procedure 1].
(§5) The reaction without a compound wad defined as “0% inhibition”, the reaction without each PDE was defined as “100% inhibition”, and the calculation of IC50 value was carried out by the same method as <Method for data calculation 1>.

In test [2] the target is T2, Human PDE7B (hPDE7B) (Homo sapiens, UniProt Q9NP56).
T2 construct: made in house; host or cells: COS-7 cells
T2 sequence (Q9NP56 whole entry): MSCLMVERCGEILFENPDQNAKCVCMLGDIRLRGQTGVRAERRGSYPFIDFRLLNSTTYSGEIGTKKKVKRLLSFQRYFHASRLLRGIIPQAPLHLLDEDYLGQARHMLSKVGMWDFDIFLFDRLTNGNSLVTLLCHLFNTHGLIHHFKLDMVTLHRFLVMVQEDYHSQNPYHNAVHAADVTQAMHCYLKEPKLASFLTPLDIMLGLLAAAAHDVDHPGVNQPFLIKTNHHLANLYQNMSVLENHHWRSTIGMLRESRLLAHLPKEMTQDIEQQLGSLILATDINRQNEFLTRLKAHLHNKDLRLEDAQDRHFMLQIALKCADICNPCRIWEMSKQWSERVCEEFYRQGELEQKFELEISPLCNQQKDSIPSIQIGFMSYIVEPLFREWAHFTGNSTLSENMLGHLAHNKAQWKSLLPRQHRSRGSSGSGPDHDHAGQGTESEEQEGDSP
The experiment in a line: Measurement of PDE7 inhibitory activity (Experimental Example 1; residual cAMP, LANCE Ultra cAMP TR-FRET). To be noted: cAMP 3 nmol/L, room temperature 60 minutes. In a few lines: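 hPDE7B from transfected COS-7 cells reacted with 3 nmol/L cAMP (final) and compound (2% DMSO) in 50 mmol/L Tris-HCl pH 7.5, 1 mmol/L MgCl2, 0.1% BSA, 0.5 mmol/L DTT, 60 min at room temperature. Reaction stopped with IBMX; residual cAMP measured by TR-FRET. Inhibition scaled between no-compound and no-enzyme controls.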
For orientation: In TR-FRET formats the signal depends on donor and acceptor labels being close together.

Test [3] has as its target T3, hPDE8B (Homo sapiens, UniProt O95263).
T3 construct: purchased SB Drug Discovery
The experiment in a line: PDE8 inhibition assay (IC50), Experimental Example 3. To be noted: for inhibition at 0.1 µM: at 0.1 μmol/L; for inhibition at 0.1 µM / inhibition at 10 µM / inhibition at 1 µM: read-out: inhibition rate (%) at prescribed concentration, PDE8; for inhibition at 10 µM: at 10 μmol/L; for IC50: hPDE8B, read-out: PDE inhibition assay IC50, PDE8. The procedure:
as §1, §2, §3, §4, §5

Test [4] has as its target hPDE10A (Homo sapiens, UniProt Q9Y233). The experiment in a line: PDE10 inhibition assay (IC50), Experimental Example 3. To be noted: for IC50: hPDE10A, read-out: PDE inhibition assay IC50, PDE10; for inhibition at 10 µM: at 10 μmol/L. The procedure: as §1, §2, §3, §4, §5
[5] abbreviates: read-out: inhibition rate (%) at prescribed concentration, PDE10.
[6] abbreviates: read-out: inhibition rate (%) at prescribed concentration, PDE4.

Chain of hPDE10A (Q9Y233 290-1055 limits assumed): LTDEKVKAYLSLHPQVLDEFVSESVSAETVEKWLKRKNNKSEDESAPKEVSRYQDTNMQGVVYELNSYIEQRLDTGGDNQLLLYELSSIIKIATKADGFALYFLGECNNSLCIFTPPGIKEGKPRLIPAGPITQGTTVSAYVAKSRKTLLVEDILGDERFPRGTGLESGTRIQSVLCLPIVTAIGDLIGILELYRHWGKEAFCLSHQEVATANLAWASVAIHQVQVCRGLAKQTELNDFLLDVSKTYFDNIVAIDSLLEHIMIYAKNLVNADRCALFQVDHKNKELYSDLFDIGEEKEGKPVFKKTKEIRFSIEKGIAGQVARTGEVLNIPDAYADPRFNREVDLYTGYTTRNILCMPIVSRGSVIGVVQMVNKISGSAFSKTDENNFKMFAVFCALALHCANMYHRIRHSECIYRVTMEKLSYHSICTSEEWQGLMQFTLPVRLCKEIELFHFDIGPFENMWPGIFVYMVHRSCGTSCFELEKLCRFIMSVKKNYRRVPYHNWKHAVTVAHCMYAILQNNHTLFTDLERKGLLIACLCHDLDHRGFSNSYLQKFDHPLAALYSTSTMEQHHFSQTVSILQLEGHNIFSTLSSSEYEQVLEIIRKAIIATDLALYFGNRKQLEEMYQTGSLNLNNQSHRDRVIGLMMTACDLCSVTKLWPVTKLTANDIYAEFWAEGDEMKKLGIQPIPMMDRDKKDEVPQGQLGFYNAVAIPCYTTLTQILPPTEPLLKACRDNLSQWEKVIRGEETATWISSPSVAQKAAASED
T1 sequence (Q08499 whole entry): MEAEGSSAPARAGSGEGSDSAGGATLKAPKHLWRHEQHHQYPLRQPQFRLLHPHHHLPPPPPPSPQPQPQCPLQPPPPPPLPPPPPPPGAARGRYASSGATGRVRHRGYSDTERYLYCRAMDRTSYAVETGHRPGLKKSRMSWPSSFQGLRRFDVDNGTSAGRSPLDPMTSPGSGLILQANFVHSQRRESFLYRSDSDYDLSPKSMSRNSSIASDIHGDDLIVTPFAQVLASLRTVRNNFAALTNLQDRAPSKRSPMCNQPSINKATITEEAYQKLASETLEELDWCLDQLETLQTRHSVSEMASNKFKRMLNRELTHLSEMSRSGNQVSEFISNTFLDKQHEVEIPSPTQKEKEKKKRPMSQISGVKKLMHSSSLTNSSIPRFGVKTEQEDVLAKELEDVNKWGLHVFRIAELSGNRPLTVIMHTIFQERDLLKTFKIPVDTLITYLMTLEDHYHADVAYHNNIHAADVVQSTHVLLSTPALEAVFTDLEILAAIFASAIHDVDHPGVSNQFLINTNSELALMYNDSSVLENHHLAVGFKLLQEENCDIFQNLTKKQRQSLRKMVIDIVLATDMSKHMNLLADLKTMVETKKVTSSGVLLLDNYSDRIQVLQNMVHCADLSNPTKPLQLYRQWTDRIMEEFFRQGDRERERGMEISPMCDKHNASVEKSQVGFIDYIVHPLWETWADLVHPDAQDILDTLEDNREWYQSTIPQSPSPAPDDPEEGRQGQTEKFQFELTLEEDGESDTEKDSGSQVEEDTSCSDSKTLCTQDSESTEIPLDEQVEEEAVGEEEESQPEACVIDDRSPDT
T3 sequence (O95263 whole entry): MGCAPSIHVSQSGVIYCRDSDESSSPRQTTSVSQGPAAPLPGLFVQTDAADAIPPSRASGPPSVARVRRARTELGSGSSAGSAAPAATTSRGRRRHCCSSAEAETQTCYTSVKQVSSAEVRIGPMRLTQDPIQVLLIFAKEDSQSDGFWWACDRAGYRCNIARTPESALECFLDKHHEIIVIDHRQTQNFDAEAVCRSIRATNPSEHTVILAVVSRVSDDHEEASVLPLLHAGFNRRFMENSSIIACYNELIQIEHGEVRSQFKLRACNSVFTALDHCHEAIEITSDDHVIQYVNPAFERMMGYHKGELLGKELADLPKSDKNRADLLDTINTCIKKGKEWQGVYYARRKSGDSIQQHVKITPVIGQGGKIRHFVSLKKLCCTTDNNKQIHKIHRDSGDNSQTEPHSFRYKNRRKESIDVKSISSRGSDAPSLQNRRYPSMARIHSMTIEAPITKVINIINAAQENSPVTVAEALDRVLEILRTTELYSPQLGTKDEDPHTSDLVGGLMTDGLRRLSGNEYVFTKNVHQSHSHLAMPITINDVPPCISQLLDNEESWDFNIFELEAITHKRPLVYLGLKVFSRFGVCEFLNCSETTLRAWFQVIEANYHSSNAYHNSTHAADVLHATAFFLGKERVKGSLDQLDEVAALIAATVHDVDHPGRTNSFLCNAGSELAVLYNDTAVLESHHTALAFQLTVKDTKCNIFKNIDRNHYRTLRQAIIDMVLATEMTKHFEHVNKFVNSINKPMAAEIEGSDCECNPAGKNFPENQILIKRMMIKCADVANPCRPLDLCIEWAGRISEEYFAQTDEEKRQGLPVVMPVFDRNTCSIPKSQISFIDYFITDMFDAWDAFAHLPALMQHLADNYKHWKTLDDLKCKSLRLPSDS

With `Nc1nccn2c(C3CCC4CC4C3)nnc12` (single isomer, unassigned) [Example 221, 3-(bicyclo[4.1.0]hept-3-yl) [1,2,4]triazolo[4,3-a]pyrazin-8-amine], the inhibition at 0.1 µM worked out at 55% in test [1] (at 0.1 μmol/L, read-out: inhibition rate (%) at prescribed concentration, PDE4) and 69% in test [3]. Besides, the IC50 – broadly, the concentration at which inhibition is half-maximal – in test [2] came out at 0.06 µM; in test [4] it was 4.8 µM.

In test [2], `CC1(n2nnc3c(N)ncnc32)CCCCC1` [Example 7] had an IC50 of 0.56 µM. Further, the inhibition at 10 µM in test [3] was 50%.

On to `Nc1ncnc2c1ncn2C1CCCCC1` [Example 182], for which the half-maximal inhibitory concentration (IC50) in test [1] turned out to be 3.42 µM; in test [2] it was 0.41 µM; in test [4], 0.47 µM.

As for `Nc1nccn2c(C3[C@H]4CCCC[C@@H]34)nnc12` (stereo partly drawn) [Example 164, 3-[(1R,6S,7r)-bicyclo[4.1.0]hept-7-yl][1,2,4]triazolo[4,3-a]pyrazin-8-amine], the half-inhibitory concentration (IC50) was found to be 3.79 µM in test [1], 0.03 µM in test [2] and 4.4 µM in test [3]. Further, the inhibition at 10 µM in test [4] (setting [5]) was 41%.

`Nc1ncnn2c(C3CCCC(C(F)(F)F)C3)nnc12` (single isomer, unassigned) [Example 75, 3-[cis-3-(trifluoromethyl)cyclohexyl][1,2,4]triazolo[3,4-f][1,2,4]triazin-8-amine]: the IC50 was 27.1 µM in test [1], 0.053 µM in test [2] and 4.33 µM in test [3]. For the same compound, the inhibition at 100 µM in test [4] (at 100 μmol/L, read-out: inhibition rate (%) at prescribed concentration, PDE10) turned out to be 44%.

With `C[C@H]1CC[C@H](c2nnc3c(N)nccn32)CC1` [Example 149, 3-(trans-4-methylcyclohexyl) [1,2,4]triazolo[4,3-a]pyrazin-8-amine], the IC50 in test [1] turned out to be 2.2 µM; in test [2], 0.04 µM; in test [3] it was 1.66 µM. Further, the inhibition at 10 µM in test [4] (setting [5]) worked out at 46%.

As to `Nc1ncnc2c1nnn2[C@H]1CCCC(F)(F)C1` [Example 89], the IC50 came to 0.16 µM in test [2] and 8.6 µM in test [3]. In addition, in test [4] (setting [5]), the inhibition at 10 µM is 17%.

`CCC1CCCCN1c1nnc2c(N)nccn12` (single isomer, unassigned) [Example 222, 3-(2-ethylpiperidin-1-yl) [1,2,4]triazolo[4,3-a]pyrazin-8-amine]: the IC50 in test [1] was determined as 3.24 µM; in test [2], 0.08 µM; in test [3], 10.6 µM; in test [4] it was 6.42 µM.

As for `Nc1nccn2c(N3CCCC(C(F)(F)F)C3)nnc12` (stereo not shown) [Example 46], the half-inhibitory concentration (IC50) in test [1] was determined as 56.9 µM; in test [2] it was 0.08 µM; in test [3], 7.7 µM; in test [4], 34.5 µM.

`CC1CCCC(n2nnc3c(N)ncnc32)C1` (single isomer, unassigned) [Example 196, 3-(cis-3-methylcyclohexyl)-3H-[1,2,3]triazolo[4,5-d]pyrimidin-7-amine]: the figures for the IC50 in test [1], in test [2] and in test [3] were 2.49 µM, less than 0.01 µM and 0.29 µM, respectively. In addition, the inhibition at 10 µM in test [4] (setting [5]) turned out to be 49%.

On to `CC1CCCC(c2nnc3c(N)ncnn23)C1` (single isomer, unassigned) [Example 72, 3-(cis-3-methylcyclohexyl) [1,2,4]triazolo[3,4-f][1,2,4]triazin-8-amine], for which the 50% inhibitory concentration (IC50) is 1.49 µM in test [1], 0.01 µM in test [2] and 8.91 µM in test [4]. The “inhibition rate (%) at prescribed concentration, PDE8” value in test [3] (at 1 μmol/L) is given as 62% at 1.

Consider `Nc1nccn2c(N3CCCC(Cc4ccccc4)C3)nnc12` (stereo not shown) [Example 48], for which the IC50 stood at 1.3 µM in test [1] and 0.07 µM in test [2]. The inhibition at 1 µM in test [3] (at 1 μmol/L) stood at 79%; in test [4] (at 1 μmol/L, read-out: inhibition rate (%) at prescribed concentration, PDE10) it was 52%.

In the case of `CC1(C)CCCC(c2nnc3c(N)ncnn23)C1` (single isomer, unassigned) [Example 242, 3-(3,3-dimethylcyclohexyl) [1,2,4]triazolo[3,4-f][1,2,4]triazin-8-amine], the inhibition at 1 µM in test [1] (at 1 μmol/L, read-out: inhibition rate (%) at prescribed concentration, PDE4) was determined as 53%; in test [3] (at 1 μmol/L) it was 84%. Further, the IC50 in test [2] was less than 0.01 µM; in test [4], 2.86 µM.

Turning to `Cc1nn(C2CCCCC2)c2ncnc(N)c12` [Example 184], the inhibition at 10 µM worked out at 48% in test [1] (setting [6]) and 18% in test [3]. Further, the IC50 in test [2] came to 0.54 µM; in test [4], 0.5 µM.

Consider `CC(C)(C)OC(=O)N1CCC[C@H](n2nnc3c(N)ncnc32)C1` [Example 13, Tert-butyl (3S)-3-(7-amino-3H-[1,2,3]triazolo[4,5-d]pyrimidin-3-yl)piperidine-1-carboxylate], for which the IC50 in test [2] was found to be 0.16 µM; in test [3], 0.22 µM.

As for `Nc1ncnc2c1nnn2C1CCCC(COc2ccccc2)C1` (stereo not shown) [Example 125], the values for the IC50 in test [2] and in test [3] were 0.21 µM and 1.11 µM, respectively.

Consider `CSc1nc(N)c2nnn(C3CCCCC3)c2n1` [Example 5, 3-cyclohexyl-5-(methylsulfanyl)-3H-[1,2,3]triazolo[4,5-d]pyrimidin-7-amine], for which the half-maximal inhibitory concentration (IC50) in test [1] was determined as 0.19 µM; in test [2], 0.03 µM; in test [4], 2.76 µM.

For the compound `CC1CCC(F)(F)CC1c1nnc2c(N)ncnn12` (single isomer, unassigned) [Example 246, 3-(cis-5,5-difluoro-2-methylcyclohexyl) [1,2,4]triazolo[3,4-f][1,2,4]triazin-8-amine], the IC50 stood at 2.3 µM in test [1], 0.003 µM in test [2] and 4.4 µM in test [3].

For `CC[C@H]1CC[C@H](n2nnc3c(N)ncnc32)CC1` [Example 100], the IC50 in test [2] was determined as 0.12 µM; in test [3], 1.8 µM.

With `C=C(C)[C@@H]1CC[C@@H](C)[C@@H](n2nnc3c(N)ncnc32)C1` [Example 106, 3-[(1S,2R,5R)-2-methyl-5-(prop-1-en-2-yl)cyclohexyl]-3H-[1,2,3]triazolo[4,5-d]pyrimidin-7-amine], the 50% inhibitory concentration (IC50) worked out at 0.3 µM in test [2] and 4.38 µM in test [3].

Take `Nc1ncnc2c1nnn2C1CCCC(COCc2ccccc2)C1` (stereo not shown) [Example 126]: the IC50 in test [2] worked out at 0.28 µM; in test [3], 2.65 µM.

For the compound `COc1nc(N)c2nnn(C3CCCCC3)c2n1` [Example 92, 3-cyclohexyl-5-methoxy-3H-[1,2,3]triazolo[4,5-d]pyrimidin-7-amine], the IC50 in test [1] was 0.64 µM; in test [2] it was less than 0.01 µM; in test [4] it was 2.97 µM.

Regarding `Nc1ncnc2c1nnn2C1CCCC(CF)C1` (stereo not shown) [Example 118], the IC50 in test [1] amounted to 4.25 µM; in test [2] it was 0.08 µM. Also, the inhibition at 1 µM in test [3] (at 1 μmol/L) amounted to 55%.

As to `Nc1ncnc2c(C3CCCCC3)onc12` [Example 253, 3-(cyclohexyl)-isoxazolo[4,3-d]pyrimidin-8-amine], the 50% inhibitory concentration (IC50) in test [1] is 7.38 µM; in test [2], 0.61 µM; in test [3], 3.81 µM.

`Nc1ncnc2c1c(C(F)(F)F)nn2C1CCCCC1` [Example 185]: the IC50 in test [1] was 1.84 µM; in test [2] it was 0.56 µM; in test [4] it was 0.36 µM.

`Cn1nc(C2CCCCC2)c2ncnc(N)c21` [Example 187, 3-cyclohexyl-1-methyl-1H-pyrazolo[4,3-d]pyrimidin-7-amine]: in test [1] (setting [6]), the inhibition at 10 µM was found to be 38%. For the same compound, the IC50 worked out at 0.58 µM in test [2] and 2.72 µM in test [4].

`Nc1ncnc2c1nnn2[C@H]1CCCN(c2ccccc2)C1` [Example 137, 3-[(3S)-1-phenylpiperidin-3-yl]-3H-[1,2,3]triazolo[4,5-d]pyrimidin-7-amine]: the IC50 in test [2] came to 0.19 µM. Moreover, in test [3], the inhibition at 0.1 µM amounted to 58%.
